According to paper PMC11589570, “Critical assessment of LC3/GABARAP ligands used for degrader development and ligandability of LC3/GABARAP binding pockets” (Nature Communications, 2024):
Several values for one entry are separate records, joined by “and”; a condition that tells them apart may be missing. Identical values can stand only once.

How the values were obtained:
[1] = biological target: T1, NanoLuc-fusion full-length LC3A (Homo sapiens, UniProt Q9H492); experiment: NanoBRET cellular target engagement assay in HEK293T cells; format: cell-based; settings: NanoLuciferase-tagged LC3A, replicates
T1 construct: a fluorescent donor (in this case full length LC3A and LC3B); expressed in transfected cells; host or cells: HEK293T (ATCC; CRL-11268)
Method: (§1) NanoBRET cellular target engagement assay: Constructs contained the cDNA of full-length LC3A and LC3B cloned in frame with an N-terminal NanoLuc-fusion. Plasmids were transfected into HEK293T (ATCC; CRL-11268) cells using FuGENE HD (Promega, E2312) and proteins were allowed to express for 20 h. 10O5 and 8F20-based tracers were titrated to the protein as depicted in Supplementary Fig. 4d. For competition experiments, 1 µM of the tracers was pipetted into white 384-well plates (Greiner 781 207) using an Echo 550 acoustic dispenser (Labcyte) containing LC3A/LC3B expressing transfected cells at a density of 2.5 × 10^5 cells/mL in Opti-MEM without phenol red (Life Technologies). The system was allowed to equilibrate for 2 h at 37 °C and 5% CO2 prior to BRET measurements. To measure BRET, NanoBRET NanoGlo Substrate + Extracellular NanoLuc Inhibitor (Promega, N2540) was added as per the manufacturer’s protocol, and filtered luminescence was measured on a PHERAstar plate reader (BMG Labtech) equipped with a luminescence filter pair (450 nm BP filter (donor) and 610 nm LP filter (acceptor)). Competitive displacement data were then plotted using GraphPad Prism 9.3 software using a normalized 3-parameter curve fit. A detailed step-by-step protocol for this assay is described in Schwalm..

[2] = biological target: T2, NanoLuc-fusion full-length LC3B (Homo sapiens, UniProt Q9GZQ8); experiment: as above; format: cell-based; settings: NanoLuciferase-tagged LC3B, replicates
T2 construct: a fluorescent donor (in this case full length LC3A and LC3B); expressed in transfected cells; host or cells: HEK293T (ATCC; CRL-11268)
Method: as §1

[3] = biological target: LC3B (Homo sapiens, UniProt Q9GZQ8); experiment: FP assay with 10O5- and 8F20-based dye-linked tracers 16 and 17; settings: for Fluorescence polarization, protein titration LC3B with tween / Fluorescence polarization, protein titration LC3B without tween: replicates; for Fluorescence polarization, displacement experiment LC3B: competing compound not named, duplicates
[4] = biological target: LC3A (Homo sapiens, UniProt Q9H492); experiment: as above; settings: for Fluorescence polarization, protein titration LC3A with tween / Fluorescence polarization, protein titration LC3A without tween: replicates; for Fluorescence polarization, displacement experiment LC3A: competing compound not named, duplicates

- Fluorescence polarization, protein titration LC3B with tween ([3]; Protein 0.1 µM): 14 and 24 and 21 and 25
- Fluorescence polarization, protein titration LC3B without tween ([3]; Protein 0.1 µM): 191 and 155 and 157 and 173
- Fluorescence polarization, protein titration LC3B with tween ([3]; Protein 0.25 µM): 30 and 20 (2×) and 28
- Fluorescence polarization, protein titration LC3B without tween ([3]; Protein 0.25 µM): 187 and 186 and 175 and 167
- Fluorescence polarization, protein titration LC3B with tween ([3]; Protein 0.5 µM): 23 and 18 and 30 and 16
- Fluorescence polarization, protein titration LC3B without tween ([3]; Protein 0.5 µM): 191 and 197 and 195 and 171
- Fluorescence polarization, protein titration LC3B with tween ([3]; Protein 1 µM): 18 and 20 and 17 and 25
- Fluorescence polarization, protein titration LC3B without tween ([3]; Protein 1 µM): 223 and 203 and 198 and 217
- Fluorescence polarization, protein titration LC3B with tween ([3]; Protein 5 µM): 24 (2×) and 19 and 17
- Fluorescence polarization, protein titration LC3B without tween ([3]; Protein 5 µM): 203 and 175 and 213 and 191
- Fluorescence polarization, protein titration LC3B with tween ([3]; Protein 10 µM): 26 and 22 and 24 and 28
- Fluorescence polarization, protein titration LC3B without tween ([3]; Protein 10 µM): 222 and 196 and 207 and 175
- Fluorescence polarization, protein titration LC3B with tween ([3]; Protein 25 µM): 25 and 29 and 18 and 31
- Fluorescence polarization, protein titration LC3B without tween ([3]; Protein 25 µM): 233 and 224 and 191 and 192
- Fluorescence polarization, protein titration LC3B with tween ([3]; Protein 50 µM): 16 and 30 and 20 and 21
- Fluorescence polarization, protein titration LC3B without tween ([3]; Protein 50 µM): 207 and 200 and 195 and 162
- Fluorescence polarization, displacement experiment LC3B ([3]; log Compound [M] -4.6031): 127.5 and 111.25
- Fluorescence polarization, displacement experiment LC3B ([3]; log Compound [M] -5.05839): 100 and 118.75
- Fluorescence polarization, displacement experiment LC3B ([3]; log Compound [M] -5.42608): 91.25 and 100.625
- Fluorescence polarization, displacement experiment LC3B ([3]; log Compound [M] -5.727): 105 and 99.375
- Fluorescence polarization, displacement experiment LC3B ([3]; log Compound [M] -6.20412): 76.875 and 78.125
- Fluorescence polarization, displacement experiment LC3B ([3]; log Compound [M] -6.6031): 97.5 and 96.25
- Fluorescence polarization, displacement experiment LC3B ([3]; log Compound [M] -7.05839): 95 and 98.75
- Fluorescence polarization, displacement experiment LC3B ([3]; log Compound [M] -7.42608): 104.375 and 100
- Fluorescence polarization, displacement experiment LC3B ([3]; log Compound [M] -7.727): 103.125 and 101.875
- Fluorescence polarization, displacement experiment LC3B ([3]; log Compound [M] -8.20412): 91.25 and 75.625
- Fluorescence polarization, displacement experiment LC3B ([3]; log Compound [M] -8.60189): 93.125 and 92.5
- Fluorescence polarization, protein titration LC3A with tween ([4]; Protein 0.1 µM): 17 and 27 and 22 and 26
- Fluorescence polarization, protein titration LC3A without tween ([4]; Protein 0.1 µM): 141 and 128 and 122 and 148
- Fluorescence polarization, protein titration LC3A with tween ([4]; Protein 0.25 µM): 23 and 27 (2×) and 19
- Fluorescence polarization, protein titration LC3A without tween ([4]; Protein 0.25 µM): 184 and 161 and 131 and 173
- Fluorescence polarization, protein titration LC3A with tween ([4]; Protein 0.5 µM): 22 and 18 and 24 and 23
- Fluorescence polarization, protein titration LC3A without tween ([4]; Protein 0.5 µM): 214 and 168 and 152 and 148
- Fluorescence polarization, protein titration LC3A with tween ([4]; Protein 1 µM): 36 and 25 and 24 and 27
- Fluorescence polarization, protein titration LC3A without tween ([4]; Protein 1 µM): 178 and 174 and 173 and 142
- Fluorescence polarization, protein titration LC3A with tween ([4]; Protein 5 µM): 23 and 19 and 21 and 25
- Fluorescence polarization, protein titration LC3A without tween ([4]; Protein 5 µM): 196 and 185 and 203 and 124
- Fluorescence polarization, protein titration LC3A with tween ([4]; Protein 10 µM): 18 and 19 and 20 and 25
- Fluorescence polarization, protein titration LC3A without tween ([4]; Protein 10 µM): 234 and 191 and 193 and 156
- Fluorescence polarization, protein titration LC3A with tween ([4]; Protein 25 µM): 18 and 17 and 26 and 19
- Fluorescence polarization, protein titration LC3A with tween ([4]; Protein 50 µM): 29 and 17 and 28 and 31
- Fluorescence polarization, protein titration LC3A without tween ([4]; Protein 50 µM): 218 and 219 and 177 and 165
- Fluorescence polarization, displacement experiment LC3A ([4]; log Compound [M] -4.6031): 87.7778 and 70
- Fluorescence polarization, displacement experiment LC3A ([4]; log Compound [M] -5.05839): 106.667 and 93.3333
- Fluorescence polarization, displacement experiment LC3A ([4]; log Compound [M] -5.42608): 111.111 and 106.667
- Fluorescence polarization, displacement experiment LC3A ([4]; log Compound [M] -5.727): 116.667 and 108.889
- Fluorescence polarization, displacement experiment LC3A ([4]; log Compound [M] -6.20412): 80 and 87.7778
- Fluorescence polarization, displacement experiment LC3A ([4]; log Compound [M] -6.6031): 94.4444 and 87.7778
- Fluorescence polarization, displacement experiment LC3A ([4]; log Compound [M] -7.05839): 96.6667 and 90
- Fluorescence polarization, displacement experiment LC3A ([4]; log Compound [M] -7.42608): 98.8889 and 88.8889
- Fluorescence polarization, displacement experiment LC3A ([4]; log Compound [M] -7.727): 95.5556 and 110
- Fluorescence polarization, displacement experiment LC3A ([4]; log Compound [M] -8.20412): 83.3333 and 101.111
- Fluorescence polarization, displacement experiment LC3A ([4]; log Compound [M] -8.60189): 82.2222 and 100
SMILES: O=C(CCC1=[N+]2C(=Cc3ccc(-c4ccc[nH]4)n3[B-]2(F)F)C=C1)NCCCOCCOCCOCCCNC(=O)COc1c(Br)cc(C=C2C(=O)Nc3ccc(I)cc32)cc1Br (mixture of isomers) [Tracer 16]
- NanoBRET signal, tracer titration, LC3A ([1]; log tracer [M] -6.00109): 124.819 and 118.345 and 124.774 and 114.881
- NanoBRET signal, tracer titration, LC3A ([1]; log tracer [M] -6.30155): 112.067 and 104.028 and 114.067 and 103.426
- NanoBRET signal, tracer titration, LC3A ([1]; log tracer [M] -6.60241): 103.182 and 101.845 and 103.925 and 98.4465
- NanoBRET signal, tracer titration, LC3A ([1]; log tracer [M] -6.90309): 99.2084 and 97.2576 and 109.844 and 92.211
- NanoBRET signal, tracer titration, LC3A ([1]; log tracer [M] -7.30112): 98.651 and 96.9847 and 99.2163 and 92.7664
- NanoBRET signal, tracer titration, LC3A ([1]; log tracer [M] -7.60206): 97.6362 and 98.7001 and 95.2489 and 95.6855
- NanoBRET signal, tracer titration, LC3A ([1]; log tracer [M] -7.92154): 98.1785 and 98.6876 and 96.8478 and 95.5754
- NanoBRET signal, tracer titration, LC3A ([1]; log tracer [M] -8.22214): 94.3049 and 97.3658 and 91.0337 and 96.1748
- NanoBRET signal, tracer titration, LC3A ([1]; log tracer [M] -8.52302): 97.3466 and 97.3205 and 85.6953 and 96.3749
- NanoBRET signal, tracer titration, LC3A ([1]; log tracer [M] -8.82391): 89.2788 and 95.7646 and 83.5217 and 94.9158
- NanoBRET signal, tracer titration, LC3A ([1]; log tracer [M] -9.00004): 83.6211 and 94.4654 and 83.1958 and 94.9397
- NanoBRET signal, tracer titration, LC3B ([2]; log tracer [M] -6.00109): 120.842 and 122.882 and 129.602 and 128.339
- NanoBRET signal, tracer titration, LC3B ([2]; log tracer [M] -6.30155): 120.38 and 105.763 and 124.568 and 118.005
- NanoBRET signal, tracer titration, LC3B ([2]; log tracer [M] -6.60241): 113.602 and 104.043 and 104.401 and 107.212
- NanoBRET signal, tracer titration, LC3B ([2]; log tracer [M] -6.90309): 98.6453 and 100.848 and 108.512 and 103.133
- NanoBRET signal, tracer titration, LC3B ([2]; log tracer [M] -7.30112): 89.1385 and 91.7873 and 88.9398 and 88.605
- NanoBRET signal, tracer titration, LC3B ([2]; log tracer [M] -7.60206): 87.7818 and 86.5962 and 85.9928 and 88.5055
- NanoBRET signal, tracer titration, LC3B ([2]; log tracer [M] -7.92154): 85.4561 and 91.534 and 90.0484 and 87.589
- NanoBRET signal, tracer titration, LC3B ([2]; log tracer [M] -8.22214): 87.644 and 91.0185 and 90.3527 and 95.3228
- NanoBRET signal, tracer titration, LC3B ([2]; log tracer [M] -8.52302): 88.7452 and 86.3664 and 89.605 and 108.381
- NanoBRET signal, tracer titration, LC3B ([2]; log tracer [M] -8.82391): 86.7783 and 81.6186 and 84.8664 and 94.2613
- NanoBRET signal, tracer titration, LC3B ([2]; log tracer [M] -9.00004): 83.8822 and 80.9003 and 85.0772 and 83.4655
